From patent publication US4424222A, “Pyridobenzodiazepinones, pharmaceutical compositions and method of use thereof” (Karl Thomae GmbH, priority 1982, dated 1984)
pIC50: −log10 of the molar value.

Columns and labels:
[1] = molecular target: muscarinic receptors (cerebral cortex); experiment: Receptor binding test (3H-N-methylscopolamine displacement), cerebral cortex; design: species or system Sprague-Dawley rats; details: 0.3 n molar 3H-NMS, 30° C., 45 minutes, read-out: Receptor binding tests IC50, Cortex
Protocol: (§1) The organ donors were male Sprague-Dawley rats with a body weight of from 180 to 200 g. After the heart, stomach and cerebral cortex had been removed, the remainder of the operation was carried out in ice-cold Hepes-HCl buffer (pH 7.4; 100 m molar NaCl, 10 m molar MgCl2). The smooth muscle of the fundus of the stomach was separated from the mucous membrane of the stomach and subjected to preliminary homogenization. The whole heart was cut up with scissors. All the organs were then homogenized in a Potter apparatus.
(§2) For the binding test, the homogenized organs were diluted as follows:
(§3) The homogenized organ preparations were incubated at a specific concentration of a radio labeled compound and with a series of concentrations of the non-radioactive test substances in an Eppendorf centrifuge tube at 30° C. Then duration of incubation was 45 minutes. 0.3 n molar ^3 H-N-methylscopolamine (^3 H-NMS) was used as the radio labeled compound. After incubation had been brought to an end by centrifuging at 14 000 g, the radioactivity in the pellet was determined. It represents the sum of the specific and non-specific binding of ^3 H-NMS. The proportion of non-specific binding was defined as the radioactivity which was bound in the presence of 1μ molar quinuclidinylbenzylate. Four measurements were taken in each case. The IC50 values of the non-labelled test substances were determined graphically. They represent the concentration of test substance at which the specific binding of ^3 H-NMS to the muscarinic receptors in the various organs was inhibited by 50%.

[2] = molecular target: muscarinic receptors (smooth muscle of the fundus of the stomach); experiment: Receptor binding test (3H-N-methylscopolamine displacement), smooth muscle fundus of stomach; design: species or system Sprague-Dawley rats; details: 0.3 n molar 3H-NMS, 30° C., 45 minutes, read-out: Receptor binding tests IC50, Smooth muscle fundus of stomach
Protocol: as §1, §2
Smooth muscle of the fundus of the stomach: 1:100
as §3

[3] = molecular target: T1, muscarinic receptors (whole heart) (Rattus norvegicus, UniProt P10980); experiment: Receptor binding test (3H-N-methylscopolamine displacement), heart; design: species or system Sprague-Dawley rats; details: 0.3 n molar 3H-NMS, 30° C., 45 minutes, read-out: Receptor binding tests IC50, Heart
T1 construct: All the organs were then homogenized in a Potter apparatus; from tissue; host or cells: whole heart homogenate of male Sprague-Dawley rats
T1 sequence (P10980 1-466): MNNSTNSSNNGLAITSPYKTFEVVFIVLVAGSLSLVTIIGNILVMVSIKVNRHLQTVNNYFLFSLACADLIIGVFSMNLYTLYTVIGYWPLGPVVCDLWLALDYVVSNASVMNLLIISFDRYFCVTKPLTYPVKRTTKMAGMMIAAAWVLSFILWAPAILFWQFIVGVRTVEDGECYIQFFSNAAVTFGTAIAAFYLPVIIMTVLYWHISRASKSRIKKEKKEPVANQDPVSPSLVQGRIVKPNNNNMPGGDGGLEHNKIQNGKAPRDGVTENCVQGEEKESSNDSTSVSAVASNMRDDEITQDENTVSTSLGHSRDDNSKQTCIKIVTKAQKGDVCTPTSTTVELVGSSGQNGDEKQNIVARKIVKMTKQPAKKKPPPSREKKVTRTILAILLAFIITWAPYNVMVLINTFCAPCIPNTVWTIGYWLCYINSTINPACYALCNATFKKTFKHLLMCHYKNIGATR
Protocol: as §1, §2
as §3, with “They represent the concentration of test substance at which the specific binding of ^3 H-NMS to the muscarinic receptors in the various organs was inhibited by 50%.” left out

[4] = tested on: muscarinic receptors (oxotremorine-induced lesions of the gastric mucous membrane); experiment: Oxotremorine test: anti-ulcerative effect (lesions in mucous membrane of stomach); type: in vivo, albino rats (Crl:COBS-CD (SD) BR strain); details: iv; rat, i.v. 15 minutes before oxotremorine 0.62 mg/kg i.v.; neostigmine 1 mg/kg oral
Protocol: (§4) Oxotremorine, a specific agonist for muscarinic receptors, produces lesions in the mucous membrane of the stomach in rats and increases their secretion of saliva. This test method was chosen so that any selective activity of an antimuscarinic substance on the stomach could be identified.
(§5) 10 female albino rats (of the Crl:COBS-CD (SD) BR strain) with a body weight of from 120 to 150 g were used in each treatment group and were kept without food for 24 hours before the start of the test but given free access to drinking water.
(§6) In order to determine, in preliminary tests, the muscarinic effect of oxotremorine on each of the symptoms studied, a dosage/activity curve was drawn up with at least three dosages for each symptom.
(§7) When testing the antimuscarinic substances, the dosage of oxotremorine which triggered the symptom in question in 90 to 100% of the animals in the preliminary tests was used.
Lesions in mucous membrane of stomach: 0.62 mg/kg i.v.
(§8) Each antimuscarinic substance was administered intravenously in uniformly graduated doses 15 minutes before the oxotremorine was administered. Control groups were given corresponding quantities of the solvent and suspending agent without the test substance.
(§9) Immediately after the oxotremorine was administered, the animals were placed in a glass case for 15 minutes and observed.
(§10) The ED50 values were determined using the method described by LITCHFIELD and WILCOXON (J. Pharmacol. Exp. Ther. 96, 99, 1949).
The effects on lesions of the mucous membrane of the stomach were evaluated as follows:
The lesions of the gastric mucous membrane were produced by intravenous injection of 0.62 mg/kg of oxotremorine 30 minutes after the oral administration of 1 mg/kg of neostigmine (a cholinesterase inhibitor). 60 minutes after the administration of the neostigmine, the animals were killed, the stomachs were removed and opened and examined for the presence of any lesions in the mucous membrane. The protective effect of the test substances was expressed as the percentabge inhibition (percentage of animals without lesions). The ED50 and ED70 values were determined using the method of LITCHFIELD AND WILCOXON (see above).

[5] = Oxotremorine test: inhibition of salivation; design: species or system albino rats (Crl:COBS-CD (SD) BR strain); details: in vivo, iv; rat, i.v. 15 minutes before oxotremorine 0.083 mg/kg i.v.; double blind
Protocol: as §4, §5, §6, §7
Secretion of saliva: 0.083 mg/kg i.v.
as §8, §9, §10

[6] = Mydriasis (effect on pupil size); design: species or system rats; details: in vivo, iv; rat, pupil size observed for 10 minutes; double blind
Protocol: The effect of the test substances on the pupil size in rats was investigated as follows:
The substances were administered intravenously to groups of 10 animals in at least three uniformly graduated doses. […] The percentage of test animals in which mydriasis occurred was determined. The ED50 values were again determined using the method of LITCHFIELD and WILCOXON (see above).

[7] = Water solubility of the base (remark); type: physicochemical; details: free base

Structure (SMILES): CN1CCC(OC(=O)N2c3ccccc3C(=O)Nc3cccnc32)CC1 [A, 5,11-dihydro-11-[[(1-methyl-4-piperidinyl)oxy]carbonyl]-6H-pyrido[2,3,-b][1,4]benzodiazepin-6-one]
- pIC50 [1]: 7.00
- pIC50 [2]: ~6.05
- pIC50 [3]: 6.30
- ED50 [4]: 0.01 mg/kg
- ED70 [4]: 0.03 mg/kg
- ED50 at 0.25 h [5]: 0.85 mg/kg
- ED50 at 10 min [6]: 0.13 mg/kg

Structure (SMILES): CN1CCC(NC(=O)N2c3ccccc3C(=O)Nc3cccnc32)CC1 [B, 5,11-dihydro-11-[[(1-methyl-4-piperidinyl)amino]carbonyl]-6H-pyrido[2,3-b][1,4]benzodiazepin-6-one]
- pIC50 [1]: 6.70
- pIC50 [2]: 5.92
- ED50 [4]: 0.0068 mg/kg
- ED70 [4]: 0.019 mg/kg
- ED50 at 0.25 h [5]: 0.42 mg/kg
- ED50 at 10 min [6]: 0.139 mg/kg

Structure (SMILES): CN1CCN(NC(=O)N2c3ccccc3C(=O)Nc3cccnc32)CC1 [C]
- pIC50 [1]: 7.22
- pIC50 [2]: 6.05
- ED50 [4]: 0.0033 mg/kg
- ED70 [4]: 0.0052 mg/kg
- ED50 at 0.25 h [5]: 0.056 mg/kg
- ED50 at 10 min [6]: 0.07 mg/kg
- water solubility (in words) [7]: watersoluble
